In patent publication US20110020801A1, “Carboxylesterase-1 Polymorphisms and Methods of Use Therefor” (priority 2007, published 2011):
Positions count from the first letter of the chain named. Where “and” joins values, the source holds several entries; their conditions need not be identical. Equal entries are not always repeated.

Columns and labels:
WT CES1 = molecular target: T1, WT CES1 (Homo sapiens, UniProt P23141); experiment: PNPA hydrolysis by S9 of Flp-In-293 cells expressing WT CES1; assay type: biochemical; conditions: S9 20 μg/ml, 37° C., 10 min, mean ± S.D. (n = 3)
T1 construct: inserting a stop codon after CES1A1 gene to yield the constructs expressing CES1 without V5-His tag; expressed in transfected cells
T1 sequence (P23141 18-567): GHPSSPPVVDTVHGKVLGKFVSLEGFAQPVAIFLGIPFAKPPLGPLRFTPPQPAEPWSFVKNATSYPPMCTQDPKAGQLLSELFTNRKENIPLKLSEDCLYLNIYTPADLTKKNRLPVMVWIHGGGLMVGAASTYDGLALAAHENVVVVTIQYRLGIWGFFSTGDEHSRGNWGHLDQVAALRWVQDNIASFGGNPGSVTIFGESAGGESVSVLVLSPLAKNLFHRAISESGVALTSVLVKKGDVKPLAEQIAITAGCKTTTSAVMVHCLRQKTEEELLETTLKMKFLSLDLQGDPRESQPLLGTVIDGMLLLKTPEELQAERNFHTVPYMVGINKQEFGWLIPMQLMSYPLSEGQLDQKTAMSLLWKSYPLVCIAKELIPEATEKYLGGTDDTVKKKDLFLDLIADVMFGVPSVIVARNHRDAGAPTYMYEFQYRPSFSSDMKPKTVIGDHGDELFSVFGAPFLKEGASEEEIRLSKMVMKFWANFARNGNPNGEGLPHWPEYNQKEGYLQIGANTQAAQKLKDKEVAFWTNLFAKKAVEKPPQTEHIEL
Text: The desired plasmid was designed such that the recombinant CES1 would be expressed in mammalian cells with a V5-His tag to facilitate detection and purification. Additionally, another plasmid was generated by inserting a stop codon after CES1A1 gene to yield the constructs expressing CES1 without V5-His tag. […] Thus, only untagged CES1 and its associated mutants were used in the enzymatic hydrolysis study. Two constructs of CES1 mutations, p.Gly143Glu and p.Asp260fs, were generated using a site-directed mutagenesis assay. All constructs were subjected to DNA sequencing analysis to confirm that the desired plasmids were obtained. […]
After attaining approximately 95% confluence, cells were rinsed and harvested in PBS containing 10 mM HEPES (pH 7.4). […] The protein concentration was determined using a Pierce BCA assay kit (Rockford, Ill.).
(§1) The hydrolysis of PNPA was carried out in 96-well culture plates at 37° C. in a final volume of 200 μl. […] The formation of p-nitrophenol (PNP) from PNPA was determined by the absorbance at 405 nm following incubation at 37° C. for 10 min.
Thus, following the enzymatic assay, the values determined for spontaneous PNP and RA hydrolysis were subtracted from the total PNP and RA production. […]

[1] = Spontaneous hydrolysis in reaction buffer; assay type: physicochemical; conditions: PBS containing 10 mM HEPES, pH 7.4
Method: (§2) Thus, following the enzymatic assay, the values determined for spontaneous PNP and RA hydrolysis were subtracted from the total PNP and RA production. […] All collected data were fit to the Michaelis-Menten equation, and kinetic parameters were calculated using nonlinear regression analysis with Graphpad Prism software (Graphpad Software Inc., San Diego, Calif.)

p.Gly143Glu CES1 [2] = molecular target: T2, p.Gly143Glu CES1 (Homo sapiens, UniProt P23141, G143E); experiment: PNPA hydrolysis by S9 of cells expressing p.Gly143Glu CES1; assay type: biochemical; conditions: S9 20 μg/ml, 37° C., 10 min, mean ± S.D. (n = 3)
T2 construct: inserting a stop codon after CES1A1 gene to yield the constructs expressing CES1 without V5-His tag; expressed in transfected cells
T2 sequence (P23141 18-567 G143E/Y526T): T1 sequence (P23141 18-567) with G126E, Y509T
Text: (§3) The desired plasmid was designed such that the recombinant CES1 would be expressed in mammalian cells with a V5-His tag to facilitate detection and purification. Additionally, another plasmid was generated by inserting a stop codon after CES1A1 gene to yield the constructs expressing CES1 without V5-His tag. […] Thus, only untagged CES1 and its associated mutants were used in the enzymatic hydrolysis study. Two constructs of CES1 mutations, p.Gly143Glu and p.Asp260fs, were generated using a site-directed mutagenesis assay. All constructs were subjected to DNA sequencing analysis to confirm that the desired plasmids were obtained. The identified CES1A1 plasmids (WT, p.Gly143Glu, and p.Asp260fs) were co-transfected with pOG44 plasmid at a ratio of 1:10 into Flp-In™-293 cells using […] (Invitrogen, Carlsbad, Calif.). Additionally, the self-ligated pcDNA5/FRT/V5-His-TOPO® vector was included as a vector control. Twenty-four hours after transfection, cells were washed with PBS and fresh complete medium (Dulbecco's modified Eagle's medium containing 10% fetal bovine serum) was added. Forty-eight hours after transfection, cells were split at a 1:10 ratio and cultured at 37° C. until cell attachment was observed. Culture medium was then removed and replenished with complete medium supplemented with the selecting antibiotic hygromycin B (100 μg/ml). The cell lines stably expressing WT, p.Gly143Glu, and p.Asp260fs CES1 were obtained only after a minimum 3-week selection process employing hygromycin B. Each generated cell line was identified by both expression detection and enzymatic function assays.
(§4) After attaining approximately 95% confluence, cells were rinsed and harvested in PBS containing 10 mM HEPES (pH 7.4). The cell suspension was then sonicated and the supernatant 9000 (S9) fraction was collected by centrifugation at 9000 g for 30 min at 4° C. The protein concentration was determined using a Pierce BCA assay kit (Rockford, Ill.).
as §1, with “μl. The S9 of cells expressing WT and mutant CES1 were diluted in reaction buffer (PBS containing 10 mM HEPES, pH 7.4) with a final S9 concentration of 20 μg/ml and preincubated at 37° C. for 10 min.” for “μl.”
as §2

p.Gly143Glu CES1 [3] = molecular target: T3, p.Gly143Glu CES1 (Homo sapiens, UniProt P23141, G143E/Y526T); experiment: as above; assay type: biochemical
T3 construct: inserting a stop codon after CES1A1 gene to yield the constructs expressing CES1 without V5-His tag; expressed in transfected cells
T3 sequence (P23141 18-567 G143E/Y526T): T1 sequence (P23141 18-567) with G126E, Y509T
Text: as §3, §4
as §1, with “μl. The S9 of cells expressing WT and mutant CES1 were diluted in reaction buffer (PBS containing 10 mM HEPES, pH 7.4) with a final S9 concentration of 20 μg/ml and preincubated at 37° C. for 10 min.” for “μl.”
as §2

p.Asp260fs CES1 = molecular target: T4, p.Asp260fs CES1 (Homo sapiens, UniProt P23141); experiment: PNPA hydrolysis by S9 of cells expressing p.Asp260fs CES1; assay type: biochemical
T4 construct: a frameshift mutation that alters residues 260-299 and causes early truncation at a premature stop codon; expressed in transfected cells
T4 sequence (P23141 with tags, fused parts or gaps): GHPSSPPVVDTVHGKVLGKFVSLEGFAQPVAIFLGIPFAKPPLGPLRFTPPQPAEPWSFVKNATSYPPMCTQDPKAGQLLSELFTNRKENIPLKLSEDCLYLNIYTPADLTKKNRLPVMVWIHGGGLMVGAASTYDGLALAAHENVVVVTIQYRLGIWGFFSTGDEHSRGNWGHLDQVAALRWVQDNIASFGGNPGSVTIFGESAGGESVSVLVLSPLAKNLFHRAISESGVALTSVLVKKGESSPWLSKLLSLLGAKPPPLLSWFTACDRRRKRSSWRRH
Text: as §3, §4
as §1, with “μl. The S9 of cells expressing WT and mutant CES1 were diluted in reaction buffer (PBS containing 10 mM HEPES, pH 7.4) with a final S9 concentration of 20 μg/ml and preincubated at 37° C. for 10 min.” for “μl.”
as §2

[4] = S9 20 μg/ml, 37° C., 10 min, mean ± S.D. (n = 3)

With `CC(=O)Oc1ccc([N+](=O)[O-])cc1` [PNPA, p-nitrophenyl acet] the Km (WT CES1) was 107 µM, the Vmax (WT CES1) was 493.9 nmole/min/mg protein and 493.9 ± 14.3 nmole/min/mg protein and the “stability in reaction buffer” value [1] was “spontaneously hydrolyzed”. The Km (p.Gly143Glu CES1 [2]) was 93.2 ± 9.8 µM, the “Km relative to WT” value (p.Gly143Glu CES1 [3]) was “comparable to that of WT” and the “Vmax as percent of that of WT CES1” value (p.Gly143Glu CES1 [3]) was 18.6%. For the same molecule, the Vmax (p.Gly143Glu CES1 [3]; [4]) was 92.0 ± 2.9 nmole/min/mg protein, the “Km relative to WT” value (p.Asp260fs CES1) was “approximately 9.5 times” and the “Vmax as percent of that of WT CES1” value (p.Asp260fs CES1) was 5.7%. The Km (p.Asp260fs CES1; [4]) was 950 ± 352 µM and the Vmax (p.Asp260fs CES1; [4]) was 28.0 ± 6.1 nmole/min/mg protein.
